Among the data in publication PMC10054477, “Design, Synthesis, and Biological Evaluation of Sulfonamide Methoxypyridine Derivatives as Novel PI3K/mTOR Dual Inhibitors” (Pharmaceuticals, 2023) are inhibition and IC50 values, retold here.

Assay [1] deals with T1, PI3Kα (Homo sapiens, UniProt P42336).
T1 construct: purchased SignalChem P27-122DH
Nature of the assay: ADP-Glo kinase assay, PI3Kα enzyme inhibition. As to conditions: at 1 nM. The class given is biochemical. Here is the method: The enzymatic inhibitory assays of all target compounds against PI3Kα were performed with the ADP-Glo assay (Promega, Madison, WI, USA, catalog No. V9102/3). Briefly, compounds were continuously diluted to a certain concentration. […] The mixture was added to a 96-well plate and incubated in a dark place at ambient temperature for 40 min. Then, the kinase reaction was stopped by adding of ADP-Glo reagent and the plate was incubated again at ambient temperature for another 40 min. The kinase detection reagent was added and the signal was collected via PerkinElmer Envision plate reader (PE, Boston, MA, USA).

Assay [2] has as its system MCF-7 cells. Nature of the assay: CCK-8 cell viability assay, MCF-7. The class given is cell-based. The settings on record: Homo sapiens, MCF7, 72 h, mean (n = 3). The method, then: (§1) MCF-7 and HCT-116 cells were purchased from the Meilunbio Biotechnology Co., Ltd. (Dalian, China). Cells were cultured at 37 °C with 5% CO2, using DMEM or RPMI 1640 medium (Meilunbio, Dalian, China) with 10% (v/v) fetal bovine serum (Gibco, San Diego, CA, USA) and 1% (v/v) penicillin and streptomycin (Meilunbio, Dalian, China). CCK-8 assay was used to determine the inhibitory effect in vitro. In short, cells were incubated into 96-well plates at the rate of 5000 cells per well. After 24 h of incubation, 100 μL medium was added, which contained a specific concentration of the test compound. After 72 h, 10 μL CCK-8 regent was added and the plate was incubated at 37 °C, 5% CO2 for 1 h. The optical density of each hole at 450 nm was read by a BioTek TS-800 microplate reader. GraphPad Prism 9.3.1 software was used to calculate the IC50 value.

Assay [3] deals with HCT-116 cells. Nature of the assay: CCK-8 cell viability assay, HCT-116. The class given is cell-based. The settings on record: Homo sapiens, mean (n = 3). Here is the method:
as §1

T1 sequence (P42336 whole entry): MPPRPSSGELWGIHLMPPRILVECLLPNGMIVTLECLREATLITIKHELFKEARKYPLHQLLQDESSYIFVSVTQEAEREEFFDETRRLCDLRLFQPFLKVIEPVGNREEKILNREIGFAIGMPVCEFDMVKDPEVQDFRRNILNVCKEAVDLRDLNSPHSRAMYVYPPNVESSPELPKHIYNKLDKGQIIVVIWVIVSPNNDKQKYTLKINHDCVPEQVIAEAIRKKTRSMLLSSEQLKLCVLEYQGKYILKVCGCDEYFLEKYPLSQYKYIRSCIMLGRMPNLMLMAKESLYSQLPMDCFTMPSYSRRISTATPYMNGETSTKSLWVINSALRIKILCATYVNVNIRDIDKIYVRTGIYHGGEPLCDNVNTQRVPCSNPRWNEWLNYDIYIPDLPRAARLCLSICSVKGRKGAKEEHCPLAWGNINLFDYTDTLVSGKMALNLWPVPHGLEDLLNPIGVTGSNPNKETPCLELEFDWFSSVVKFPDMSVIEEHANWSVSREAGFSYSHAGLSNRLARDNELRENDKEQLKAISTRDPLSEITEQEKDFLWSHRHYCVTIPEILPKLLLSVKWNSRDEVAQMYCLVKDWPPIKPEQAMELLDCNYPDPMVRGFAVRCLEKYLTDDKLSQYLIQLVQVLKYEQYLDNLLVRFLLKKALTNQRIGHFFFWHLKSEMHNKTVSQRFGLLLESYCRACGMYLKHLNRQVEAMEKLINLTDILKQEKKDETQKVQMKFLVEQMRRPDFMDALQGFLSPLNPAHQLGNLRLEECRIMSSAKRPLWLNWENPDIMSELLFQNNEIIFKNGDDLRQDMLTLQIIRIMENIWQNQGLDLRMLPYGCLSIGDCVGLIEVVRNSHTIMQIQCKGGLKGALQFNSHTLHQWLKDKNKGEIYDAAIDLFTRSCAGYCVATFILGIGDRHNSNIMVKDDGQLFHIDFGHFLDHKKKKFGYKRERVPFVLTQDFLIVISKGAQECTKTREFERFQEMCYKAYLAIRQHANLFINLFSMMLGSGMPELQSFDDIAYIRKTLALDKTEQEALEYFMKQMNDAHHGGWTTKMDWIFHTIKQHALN
T1 sequence (P27986 whole entry partner): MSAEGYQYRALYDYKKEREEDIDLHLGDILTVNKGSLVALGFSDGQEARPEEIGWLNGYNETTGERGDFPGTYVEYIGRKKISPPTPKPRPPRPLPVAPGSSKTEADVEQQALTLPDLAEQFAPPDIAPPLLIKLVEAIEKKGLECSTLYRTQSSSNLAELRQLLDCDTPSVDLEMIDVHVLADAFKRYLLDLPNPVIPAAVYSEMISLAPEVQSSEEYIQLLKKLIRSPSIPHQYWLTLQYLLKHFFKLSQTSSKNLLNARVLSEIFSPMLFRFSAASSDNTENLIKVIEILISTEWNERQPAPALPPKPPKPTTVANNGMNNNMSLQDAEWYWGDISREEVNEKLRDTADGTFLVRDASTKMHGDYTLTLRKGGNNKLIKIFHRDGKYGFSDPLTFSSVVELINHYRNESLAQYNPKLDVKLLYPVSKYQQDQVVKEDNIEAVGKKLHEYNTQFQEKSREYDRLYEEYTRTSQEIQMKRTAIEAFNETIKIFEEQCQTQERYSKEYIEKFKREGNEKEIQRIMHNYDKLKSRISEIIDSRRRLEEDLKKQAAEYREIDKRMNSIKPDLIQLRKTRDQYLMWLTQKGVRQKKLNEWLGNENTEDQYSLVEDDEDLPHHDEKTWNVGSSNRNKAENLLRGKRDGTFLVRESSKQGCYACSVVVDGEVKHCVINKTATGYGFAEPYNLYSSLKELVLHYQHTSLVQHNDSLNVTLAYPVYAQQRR

Molecule `COc1ncc(-c2ccc3c(c2)sc2c(N4CCOCC4)ncnc23)cc1NS(=O)(=O)c1ccc(F)cc1F` [11a, 2,4-difluoro-N-(2-methoxy-5-(4-morpholinobenzo[4,5]thieno[3,2-d]pyrimidin-7-yl)pyridin-3-yl)benzenesulfonamide] gave an inhibition at 0.001 µM in assay [1] (Table 1) of 10%. Moreover, the concentration for half-maximal inhibition (IC50) was 0.96 ± 0.23 µM in assay [2] (Table 1) and more than 1 µM in assay [3] (Table 1, 72 h).

As for `COc1ncc(-c2ccc3c(c2)sc2c(NCCN)ncnc23)cc1NS(=O)(=O)c1ccc(F)cc1F` [11f, N-(5-(4-((2-aminoethyl)amino)benzo[4,5]thieno[3,2-d]pyrimidin-7-yl)-2-methoxypyridin-3-yl)-2,4-difluorobenzenesulfonamide], the inhibition at 0.001 µM in assay [1] (Table 1) was determined as 10%. Besides, the IC50 in assay [2] (Table 1) was 0.69 ± 0.25 µM; in assay [3] (Table 1, 72 h) it was 0.77 ± 0.21 µM.

With `COc1ncc(-c2ccc3c(c2)sc2c(NCCN(C)C)ncnc23)cc1NS(=O)(=O)c1ccc(F)cc1F` [11h, N-(5-(4-((2-(dimethylamino)ethyl)amino)benzo[4,5]thieno[3,2-d]pyrimidin-7-yl)-2-methoxypyridin-3-yl)-2,4-difluorobenzenesulfonamide], testing at 0.001 µM in assay [1] (Table 1) gave an inhibition of 12%. Besides, the half-maximal inhibitory concentration (IC50) was 0.7 ± 0.21 µM in assay [2] (Table 1) and 0.56 ± 0.1 µM in assay [3] (Table 1, 72 h).

`COc1ncc(-c2ccc3nccc(-c4ncc(C(=O)NCCc5ccc(Cl)cc5)o4)c3c2)cc1NS(=O)(=O)c1ccc(F)cc1F` [22l, N-(4-chlorophenethyl)-2-(6-(5-((2,4-difluorophenyl)sulfonamido)-6-methoxypyridin-3-yl)quinolin-4-yl)oxazole-5-carboxamide] registered an inhibition at 0.001 µM in assay [1] (Table 3) of 15%. The half-maximal inhibitory concentration (IC50) in assay [2] (Table 3) is more than 1 µM; in assay [3] (Table 3, 72 h) it was more than 1 µM.

Consider `COc1ncc(-c2ccc3nccc(-c4ncc(C(=O)NCC5CCCCC5)o4)c3c2)cc1NS(=O)(=O)c1ccc(F)cc1F` [22i, N-(cyclohexylmethyl)-2-(6-(5-((2,4-difluorophenyl)sulfonamido)-6-methoxypyridin-3-yl)quinolin-4-yl)oxazole-5-carboxamide], for which the inhibition at 0.001 µM in assay [1] (Table 3) worked out at 33%. Also, the concentration for half-maximal inhibition (IC50) in assay [2] (Table 3) is 1 ± 0.3 µM; in assay [3] (Table 3, 72 h) it was 0.77 ± 0.19 µM.

`COCCOc1ncnc2c1sc1cc(-c3cnc(OC)c(NS(=O)(=O)c4ccc(F)cc4F)c3)ccc12` [11l, N-(2-methoxy-5-(4-(2-methoxyethoxy)benzo[4,5]thieno[3,2-d]pyrimidin-7-yl)pyridin-3-yl)-2,4-difluorobenzenesulfonamide] came in with an inhibition at 0.001 µM in assay [1] (Table 1) of 18%. For the same molecule, the IC50 is 0.86 ± 0.12 µM in assay [2] (Table 1) and more than 1 µM in assay [3] (Table 1, 72 h).

The molecule `CCOC(=O)c1cnc(-c2ccnc3ccc(-c4cnc(OC)c(NS(=O)(=O)c5ccc(F)cc5F)c4)cc23)o1` [22a, Ethyl-2-(6-(5-((2,4-difluorophenyl)sulfonamido)-6-methoxypyridin-3-yl)quinolin-4-yl)oxazole-5-carboxylate] showed an inhibition at 0.001 µM in assay [1] (Table 3) of 20%. The IC50 in assay [2] (Table 3) is more than 1 µM; in assay [3] (Table 3, 72 h), more than 1 µM.

As for `COc1ncc(-c2cnc3ncnc(NCCN(C)C)c3c2)cc1NS(=O)(=O)c1ccc(F)cc1F` [17d, N-(5-(4-((2-(dimethylamino)ethyl)amino)pyrido[2,3-d]pyrimidin-6-yl)-2-methoxypyridin-3-yl)-2,4-difluorobenzenesulfonamide], the inhibition at 0.001 µM in assay [1] (Table 2) amounted to 31%. Also, the 50% inhibitory concentration (IC50) was 0.73 ± 0.19 µM in assay [2] (Table 2) and 0.52 ± 0.23 µM in assay [3] (Table 2, 72 h).

Take `COc1ncc(-c2cnc3ncnc(NCCN4CCOCC4)c3c2)cc1NS(=O)(=O)c1ccc(F)cc1F` [17g, N-(2-methoxy-5-(4-((2-morpholinoethyl)amino)pyrido[2,3-d]pyrimidin-6-yl)pyridin-3-yl) -2,4-difluorobenzenesulfonamide]: the inhibition at 0.001 µM in assay [1] (Table 2) came out at 11%. In addition, the concentration for half-maximal inhibition (IC50) in assay [2] (Table 2) was more than 1 µM; in assay [3] (Table 2, 72 h), more than 1 µM.

`COc1ncc(-c2ccc3c(c2)sc2c(NC4CC4)ncnc23)cc1NS(=O)(=O)c1ccc(F)cc1F` [11d, N-(5-(4-(cyclopropylamino)benzo[4,5]thieno[3,2-d]pyrimidin-7-yl)-2-methoxypyridin-3-yl)-2,4-difluorobenzenesulfonamide]: in assay [1] (Table 1), at 0.001 µM the inhibition was 40%. For the same molecule, the 50% inhibitory concentration (IC50) in assay [2] (Table 1) is 0.51 ± 0.11 µM; in assay [3] (Table 1, 72 h), 0.19 ± 0.12 µM.

Molecule `COCCNC(=O)c1cnc(-c2ccnc3ccc(-c4cnc(OC)c(NS(=O)(=O)c5ccc(F)cc5F)c4)cc23)o1` [22e, 2-(6-(5-((2,4-difluorophenyl)sulfonamido)-6-methoxypyridin-3-yl)quinolin-4-yl)-N-(2-methoxyethyl)oxazole-5-carboxamide] displayed an inhibition at 0.001 µM in assay [1] (Table 3) of 69%. The concentration for half-maximal inhibition (IC50) in assay [2] (Table 3) was determined as 0.2 ± 0.09 µM; in assay [3] (Table 3, 72 h) it was 0.13 ± 0.05 µM.

As to `COc1ncc(-c2ccc3nccc(-c4ncc(C(=O)NC5CCCCC5)o4)c3c2)cc1NS(=O)(=O)c1ccc(F)cc1F` [22j, N-cyclohexyl-2-(6-(5-((2,4-difluorophenyl)sulfonamido)-6-methoxypyridin-3-yl)quinolin-4-yl)oxazole-5-carboxamide], in assay [1] (Table 3), the inhibition at 0.001 µM was found to be 18%. Besides, the IC50 in assay [2] (Table 3) was more than 1 µM; in assay [3] (Table 3, 72 h), more than 1 µM.

Consider `COc1ncc(-c2ccc3c(c2)sc2c(NCCCN4CCOCC4)ncnc23)cc1NS(=O)(=O)c1ccc(F)cc1F` [11j, N-(2-methoxy-5-(4-((3-morpholinopropyl)amino)benzo[4,5]thieno[3,2-d]pyrimidin-7-yl)pyridin-3-yl)-2,4-difluorobenzenesulfonamide], for which at 0.001 µM the inhibition in assay [1] (Table 1) was 10%. Besides, the half-maximal inhibitory concentration (IC50) in assay [2] (Table 1) is more than 1 µM; in assay [3] (Table 1, 72 h) it was more than 1 µM.

On to `COc1ncc(-c2cnc3ncnc(N4CCC(C)CC4)c3c2)cc1NS(=O)(=O)c1ccc(F)cc1F` [17f, N-(2-methoxy-5-(4-(4-methylpiperidin-1-yl)pyrido[2,3-d]pyrimidin-6-yl)pyridin-3-yl)-2,4-difluorobenzenesulfonamide], for which the inhibition at 0.001 µM in assay [1] (Table 2) was determined as 11%. For the same molecule, the IC50 in assay [2] (Table 2) turned out to be 0.86 ± 0.3 µM; in assay [3] (Table 2, 72 h), 0.51 ± 0.25 µM.
